Measurements: PubChem BioAssay (NCI)
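GI50: concentration for 50% inhibition of growth. At the TGI there is no net growth.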

Assays:
Experiment in all cases: NCI tumour cell line growth inhibition, 384-well format
[1] = system: MALME-3M melanoma
[2] = system: MDA-MB-468 breast
[3] = system: UACC-62 melanoma
[4] = system: HOP-92 NSCLC
[5] = system: 786-0 renal
[6] = system: SK-OV-3 ovarian
[7] = system: EKVX NSCLC
[8] = system: SF-295 CNS
[9] = system: ACHN renal
[10] = system: SNB-75 CNS
[11] = system: RPMI-8226 leukemia
[12] = system: U251 glioblastoma
[13] = system: CCRF-CEM leukemia

| Compound | GI50 [1] [nM] | TGI [1] [µM] | GI50 [2] [nM] | TGI [2] [µM] | GI50 [3] [nM] | TGI [3] [µM] | GI50 [4] [nM] | TGI [4] [µM] | GI50 [5] [nM] | TGI [5] [µM] | GI50 [6] [nM] | TGI [6] [µM] | GI50 [7] [nM] | TGI [7] [µM] | GI50 [8] [nM] | TGI [8] [µM] | GI50 [9] [nM] | TGI [9] [µM] | GI50 [10] [nM] | TGI [10] [µM] | other results |
| --- | --- | --- | --- | --- | --- | --- | --- | --- | --- | --- | --- | --- | --- | --- | --- | --- | --- | --- | --- | --- | --- |
| O=C(NC[C@H](O)CN1CCc2ccccc2C1)c1cc(NC2COC2)ncn1 | > 100000 | > 100 | > 100000 | > 100 | > 100000 | > 100 | > 100000 | > 100 | > 100000 | > 100 | > 100000 | > 100 | > 100000 | > 100 | > 100000 | > 100 | > 100000 | > 100 | > 100000 | > 100 | GI50 [11]: > 47700 nM; TGI [11]: > 100 µM; GI50 [12]: > 100000 nM; TGI [12]: > 100 µM; GI50 [13]: > 100000 nM; TGI [13]: > 100 µM |
| CN1CCN(c2ccc(Nc3cc(-c4cccc(-n5ccc6cc(C7CC7)cc(F)c6c5=O)c4CO)cn(C)c3=O)nc2)CC1 | 1860 | 3.27 | 1700 | 3.16 | 1740 | 3.16 | 2110 | 4.78 | 1690 | 3.39 | 2590 | 6.61 | 2030 | 4.57 | 2210 | 4.93 | 1600 | 3.01 | 1730 | 3.44 | GI50 [11]: 2060 nM; TGI [11]: 3.56 µM; GI50 [12]: 2200 nM; TGI [12]: 4.54 µM; GI50 [13]: 1780 nM; TGI [13]: 3.18 µM |
